These results are taken from patent publication US20220022465A1, “METHODS AND COMPOSITIONS FOR REPELLING BIRDS IN CROP PLANTS” (Bayer Aktiengesellschaft, priority 2019, published 2022).

SMILES strings stand for the structures.

This assay has as its system pigeons. As to the kind of experiment: Third repellency test 3.3, compared with pigeons offered untreated seeds in parallel at Day 0. The assay is classed as in vivo. From the text: The test procedure was however slightly changed compared to the trials in Examples 3.1 and 3.2. Indeed, instead of simply comparing the effect of the tested compositions against the untreated seeds offered to the pigeons at Day-1, here a set of the pigeons was also offered untreated seeds at Day 0 in parallel to the set of pigeons being offered the seeds treated with a composition. The results for the set of pigeons having received the treated seeds are therefore compared to the results for the set of pigeons having received the untreated seeds in parallel at Day 0 (instead of the results for the set of the pigeons having received the untreated seeds at Day-1). Two trials under this setting have been performed with different compositions.
Trial 1: • Black pepper at the dose of 40.5 ml/50000 corn seeds • Garlic at the dose of 4.5 ml/50000 corn seeds • Mixture of Black pepper (90%) and garlic (10%) at the dose of 45 ml/50000 corn seeds
Trial 2: • Black pepper at the dose of 40.5 ml/50000 corn seeds • Garlic at the dose of 4.5 ml/50000 corn seeds • Mixture of Black pepper (90%) and garlic (10%) at the dose of 45 ml/50000 corn seeds • Thiram at the dose of 45 ml/50000 corn seeds

For the compound `CN(C)C(=S)SSC(=S)N(C)C` [Thiram], the “Percentage (%) of reduction of feed consumption” value (Trial 2, 45 ml per 50000 maize seeds) is 65%. Moreover, the “Repellency effect on seed consumption, in words” value (test 3.3, doses of Table 4) is given as “good repellency effect on seed consumption”.
